From patent US6796312B2, “Process and apparatus for the removal of toxic components of tobacco smoke and the standardization of the health hazards related to those components” (priority 2001, dated 2004)
Where two headings read alike, the source gives them in different places.

Key:
[1] = cited from earlier work
myeloperoxidase = biological target: T1, myeloperoxidase (Homo sapiens, UniProt P05164); test: NADH2-NDGA-myeloperoxidase spectrophotometric assay of sputum / oral fluid-cell harvest supernatant extracts; type: biochemical
T1 construct: Homogenates were centrifuged at 1,300×g for ten (10) minutes and the supernatant extracts were kept during the course of analysis; from tissue; host or cells: human sputum / oral fluid-cell harvest (neutrophil-rich) homogenate supernatants
T1 sequence (P05164 49-745): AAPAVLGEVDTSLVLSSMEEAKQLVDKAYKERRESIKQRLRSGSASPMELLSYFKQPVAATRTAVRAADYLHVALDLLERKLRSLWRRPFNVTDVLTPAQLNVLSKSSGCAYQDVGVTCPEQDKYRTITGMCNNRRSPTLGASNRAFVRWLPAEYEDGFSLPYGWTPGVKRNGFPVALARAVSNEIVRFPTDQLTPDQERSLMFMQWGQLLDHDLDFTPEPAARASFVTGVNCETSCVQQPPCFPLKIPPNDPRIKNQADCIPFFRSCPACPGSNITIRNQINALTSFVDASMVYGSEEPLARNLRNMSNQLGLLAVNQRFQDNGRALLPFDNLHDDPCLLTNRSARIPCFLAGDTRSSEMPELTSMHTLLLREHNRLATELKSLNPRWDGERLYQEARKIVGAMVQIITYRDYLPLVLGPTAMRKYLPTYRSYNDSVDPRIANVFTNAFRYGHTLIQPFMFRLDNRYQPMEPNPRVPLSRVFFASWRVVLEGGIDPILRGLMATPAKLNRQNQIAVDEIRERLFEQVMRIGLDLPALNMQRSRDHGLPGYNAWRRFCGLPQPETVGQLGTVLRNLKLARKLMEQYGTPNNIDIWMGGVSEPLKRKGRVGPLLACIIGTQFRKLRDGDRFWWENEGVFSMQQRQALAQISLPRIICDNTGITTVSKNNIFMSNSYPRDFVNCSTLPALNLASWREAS
Protocol: Aliquots of fresh human oral fluid-cell harvests as exemplified above or fresh human sputum collected by the donors over a twenty-four (24) hour period were disrupted employing either Ten Broeck glass homogenizers or the Virtis homogenizer. Homogenates were centrifuged at 1,300×g for ten (10) minutes and the supernatant extracts were kept during the course of analysis at zero degrees centigrade (0° C.). Other reactants were incubated at thirty-five degrees centigrade (35° C.). Reduced nicotinamide-adenine dinucleotide oxidase and norhydroguaiaretic acid-myeloperoxidase activities were followed at 340 mμ or (nm) employing the Beckman Model DU Spectrophotometer temperature regulated at thirty-five degrees centigrade (35° C.). All specific reactions were run as duplicate assays.
Although this oxidation was very small under the conditions of experiment, an interaction correction factor was determined and applied to all reduced nicotinamide-adenine dinucleotide-nordihydroguaiaretic acid-mycloperoxidase assay reactions.
The velocity constants for the myeloperoxidase reactions behaved and were computed in accord with zero order reaction kinetics. […] In most instances, the activities followed first order reaction kinetics for a short interval and then ceased abruptly. The latter may be due to the presence or accumulation of variable concentrations of an unidentified inhibitor or inhibitors in the supernatants. Since in all cases the oxidase activities were very slow relative to the myeloperoxidase activities, the difference in optical density over the course of the reactions (up to ten (10) minutes) for the oxidase system were computed in the same manner as the data for the rapid myeloperoxidase system. Thus, all velocity constants were expressed in μ Moles of reduced nicotinamide-adenine dinucleotide oxidized per minute per ml. of oral fluid-cell harvest or sputum. The small oxidase activities were applied as a correction factor in the computation of all myeloperoxidase velocity constants.
The pH optimum of the myeloperoxidase system was determined. When fresh nordihydroguaiaretic acid solutions were prepared and interaction rates with reduced nicotinamide-adenine dinucleotide were subtracted as controls from oral lavage and sputum supernatant myeloperoxidase activities, the net velocity constants were zero (0). On the other hand, five (5) hour old nordihydroguaiaretic acid solutions yielded optimal activities at approximately pH 7.4. Subsequent experiments uniformly were carried out at pH 7.0 using five (5) hour old solutions to minimize the rates of the auto oxidation of nordihydroguaiaretic acid and oxidation of reduced nicotinamide-adenine dinucleotide by nordihydroguaiaretic acid when employing alkaline pH's.

CC(Cc1ccc(O)c(O)c1)C(C)Cc1ccc(O)c(O)c1 (stereo not drawn) [NDGA, beta, gamma-dimethyl-alpha, ortho-bis (3,4 dihydroxiphenyl) butane]
solubility ([1]; dilute hydrochloric acid): insoluble
solubility ([1]; ethanol, methanol, ether, acetone, glycerol, propylene glycol, dilute alkali): soluble
solubility ([1]; hot water and chloroform): slightly soluble
NADH2-NDGA-MPO velocity constant (myeloperoxidase; NDGA solution aged 0 minutes): 0.00 μ Moles NADH2 oxidized per minute per ml. of sputum supernatant
NADH2-NDGA-MPO velocity constant (myeloperoxidase; NDGA solution aged 60 minutes): 8.97 μ Moles NADH2 oxidized per minute per ml. of sputum supernatant
NADH2-NDGA-MPO velocity constant (myeloperoxidase; NDGA solution aged 120 minutes): 14.43 μ Moles NADH2 oxidized per minute per ml. of sputum supernatant
NADH2-NDGA-MPO velocity constant (myeloperoxidase; NDGA solution aged 180 minutes): 27.65 μ Moles NADH2 oxidized per minute per ml. of sputum supernatant
NADH2-NDGA-MPO velocity constant (myeloperoxidase; NDGA solution aged 240 minutes): 28.89 μ Moles NADH2 oxidized per minute per ml. of sputum supernatant
NADH2-NDGA-MPO velocity constant (myeloperoxidase; NDGA solution aged 337 minutes): 32.40 μ Moles NADH2 oxidized per minute per ml. of sputum supernatant
NADH2-NDGA-MPO velocity constant (myeloperoxidase; NDGA solution aged 397 minutes): 41.39 μ Moles NADH2 oxidized per minute per ml. of sputum supernatant
NADH2-NDGA-MPO velocity constant (myeloperoxidase; NDGA solution aged 440 minutes): 44.21 μ Moles NADH2 oxidized per minute per ml. of sputum supernatant
NADH2-NDGA-MPO velocity constant (myeloperoxidase; NDGA solution aged 485 minutes): 46.85 μ Moles NADH2 oxidized per minute per ml. of sputum supernatant
